Data taken from US20110158909A1, “Cationic Contrast Agents and Methods of Use Thereof” (Trustees of Boston University, priority 2008, published 2011).
Read-outs that look alike come from different tables or passages of the source.

Assays:
[1] = CT imaging of normal and trypsin degraded osteochondral plugs with anionic and cationic contrast agent; design: species or system bovine; conditions: for x-ray attenuation coefficient, normal vs trypsin degraded osteochondral plugs: 16 mg/mL bound iodine, overnight at 4° C., p<0.05
Protocol: In one experiment, eight osteochondral plugs (7 mm diameter) were harvested immediately after slaughter from the patella-femoral joint of three mature cows using a water-cooled, cylindrical diamond tipped cutter (See FIG. 2a for an example picture of osteochondral plugs). The plugs were divided into a normal cartilage group (n=4) and a trypsin degraded cartilage group (n=4). The osteochondral plugs of the degraded cartilage group were immersed in trypsin (2 mg/mL in 50 mM Tris, 20 mM CaCl2, pH=7.8) and incubated for 2 hours at 37° C.
All the plugs were immersed overnight in Cysto Conray II, an anionic, triiodinated contrast agent, diluted in PBS to 16 mg/mL of bound iodine at 4° C. to allow sufficient time for the contrast agent to diffuse into the cartilage. Sequential, 100μ thick, transaxial pQCT images were obtained at 70μ in plane resolution and 300μ inter-slice distance (XCT Research SA+, Stratec) for all the osteochondral plugs. The CT data were imported into Analyze™ (BIR, Mayo Clinic) to create reconstructed 3D images of the osteochondral plugs (see FIG. 2b for a representative image representing one slice of the reconstructed 3D image). A user specified contour was employed to segment the cartilage from the bone. The mean x-ray attenuation coefficient for cartilage was obtained by averaging over all pixels contained in cartilage on the transaxial CT images. The osteochondral plugs were then washed in PBS to remove the anionic contrast agent. The plugs were then re-immersed in the cationic triiodinated contrast agent at the same dilution and conditions used for the anionic contrast agent and repeat CT imaging of the osteochondral plugs was performed.
The GAG content of the articular cartilage was measured using a dimethylmethylene blue (DMMB) assay. A razor blade was used to separate the articular cartilage from the subchondral bone and the cartilage was stored at −20° C. After weighing the hydrated cartilage, it was lyophilized and weighed dry. The cartilage was digested with papain at 65° C. for 24 hours and diluted 10 to 100 times for the assay. Accounting for the dilution, the total GAG weight per mg cartilage dry weight was calculated.
The GAG content measured directly; the x-ray attenuation measured by CT for the anionic and cationic contrast agents were compared for the normal and trypsin degraded articular cartilage plugs using 1-way.ANOVA. Further, the x-ray attenuation measured by CT for both the anionic and cationic contrast agents was expressed as a function of the measured GAG content. The slopes of these relationships were compared to assess the relative sensitivity of these contrast agents to measure differences in the GAG content of articular cartilage.

[2] = Passive diffusion of contrast agents into and out of articular cartilage, quantitative CT; design: species or system bovine; conditions: for average CT attenuation: time=5 h to time=24 h of immersion in contrast agent, 27 mg iodine/mL, pH 6.8, n=4
Protocol: The diffusion characteristics of the contrast agents were evaluated using bovine osteochondral plugs. Two cationic contrast agents, 4 and 6, were compared to a commercially-available singly-charged anionic contrast agent, iothalamate (Cysto Conray II®). Three groups of osteochondral plugs were prepared (n=4)—one for each contrast agent. The plugs were immersed in aqueous contrast agent solution (27 mg of organically-bound iodine/mL, pH 6.8) and removed at 1, 2, 4, 6, 18, and 24 h for imaging using quantitative CT (QCT). Following diffusion into the cartilage, the osteochondral plugs were immersed in saline solution and imaged at the same time points to monitor the diffusion of the contrast agent out of the cartilage. Articular cartilage has a natural anisotropic distribution of GAGs, with low GAG content in the superficial zone and higher GAG content in the middle and deep zones. This anisotropic distribution of GAG was reflected by the variation in x-ray attenuation in the CT images (FIG. 5B). […] In order to determine the initial rates of diffusion into the cartilage tissue, linear regression analyses were applied to the contrast-enhanced CT attenuation data for each osteochondral plug after immersion for 0, 1, and 2 h (Table 1). The slope represents the average rate of diffusion for each contrast agent. Cationic contrast agents 4 and 6 diffuse into cartilage 1.77 and 1.65 times faster, respectively, than the anionic agent iothalamate (FIG. 6).

[3] = Cartilage degradation study (chondroitinase ABC): CT attenuation vs GAG content by DMMB assay; design: species or system bovine; conditions: for slope of linear regression, average CT intensity vs GAG content: GAG content as 100×(mg of GAG)/(mg of hydrated cartilage)
Description: In order to evaluate the ability of the contrast agents to diagnose an OA state, the hyaline cartilage of the osteochondral plugs was enzymatically degraded to mimic the GAG depletion observed in early OA by exposing the hyaline cartilage to different concentrations of the polysaccharide-specific hydrolase, chondroitinase ABC. After degradation, the same set of osteochondral plugs was exposed to each contrast agent consecutively, enabling a direct comparison of the resulting data. The average CT attenuation for each group was plotted as a function of the GAG content obtained by the DMMB assay and subjected to linear regression analysis (FIG. 7A). […] The variation in CT attenuation effected by diffusion of cationic contrast agent 6, with four positive charges, into the hyaline cartilage accounted for 79% of the variation in cartilage GAG, whereas the variation in CT attenuation effected by diffusion of cationic contrast agent 4, with a single positive charge, accounted for 56% of the variation in cartilage GAG. In comparison, the diffusion of anionic contrast agent iothalamate with a single negative charge accounted for 52% of the variation in cartilage GAG. The slope of the regression line represents the sensitivity of contrast enhanced CT attenuation of cartilage to changes in the GAG content of the cartilage. The cationic contrast agents were more sensitive (4: 1.4× and 6: 5.3×) to changes in cartilage GAG content than the anionic contrast agent iothalamate.

[4] = microCT imaging of intact rabbit femur; conditions: magnified view of cartilage surface, FIG. 8B
Description: Contrast agent 6 was chosen for use in a rabbit femur study to highlight the ability of the cationic contrast agent to portray the variation in cartilage GAG concentration and cartilage thickness in an intact rabbit femur. […] The contrast-enhanced CT image was able to define the anisotropic distribution of GAG through the depth of the articular cartilage. […] The contrast enhanced CT image of the femur can also be used to determine the variable thickness of the articular cartilage. […] Cartilage thickness is greater at the femoral groove than at the condyles.

[5] = 2 h immersion in contrast agent

SMILES	x-ray attenuation coefficient, normal vs trypsin degraded osteochondral plugs [1]	sensitivity of relative change in x-ray attenuation to change in GAG content, compared to anionic contrast agent ([1]; normal vs trypsin degraded plugs)	enhancement of CT images of cartilage tissue ([1]; osteochondral plugs)	CT attenuation of cartilage in CT images [2, 5]	reflection of anisotropic GAG distribution (deep vs superficial zone) in CT images ([2]; FIG. 5B)	CT attenuation of cartilage in CT images ([2]; after 2 h of immersion in saline)	removal from cartilage on immersion in saline ([2]; after immersion in saline for 6 hours)	average CT attenuation [2]	relation of CT attenuation to GAG content [3]	variation in cartilage GAG accounted for by variation in CT attenuation [3]	slope of linear regression, average CT intensity vs GAG content [3]	level of CT attenuation in CT images of degraded and undegraded plugs ([3]; after equilibrium in contrast agent, FIG. 7B)	CT attenuation of cartilage in CT images ([2]; after 24 h in saline)	x-ray attenuation higher compared to iothalamate ([2]; after equilibration (24 h))	initial rate of diffusion into cartilage relative to iothalamate ([2]; linear regression of CT attenuation at 0, 1 and 2 h)	level of CT attenuation in CT images of degraded and undegraded plugs [3]	sensitivity to changes in cartilage GAG content relative to iothalamate (slope of regression line) [3]	sensitivity to distribution of GAG in cartilage surface [4]
NCCNC(=O)c1c(I)c(N)c(I)c(C(=O)NCCN)c1I [contrast agent 2]	greater than that for the trypsin degraded osteochondral plugs	4.3 ×	capable of enhancing CT images of the cartilage tissue															
CNC(=O)c1c(I)c(NC(C)=O)c(I)c(C(=O)O)c1I [iothalamate, reference compound]	inverse relation			very little change	less sensitive to subtle changes in the GAG content	began to decline	almost completely removed	500-600	indirectly related	52%	negative slope	low levels of CT attenuation						
NCCNC(=O)c1c(I)cc(I)c(N)c1I [contrast agent 6]				medium levels				900-1100	directly proportional	79%	13758		still showed medium levels of CT attenuation	~60%	1.65 times faster	high levels of CT attenuation	5.3 ×	sensitive to the variable distribution of GAG throughout the cartilage surface
